Source: patent US9227971B2, “Pyrazolo[1,5-a]pyrimidine compounds as mTOR inhibitors” (Merck Sharp & Dohme Corp., priority 2010, dated 2016)
pIC50: −log10 of the molar value.

Columns and labels:
[1] = tested on: phosphorylated AKT Ser473 (pAKT S473), mTORC2 activity, PC3 cells; test: mTOR target engagement assay, immunofluorescent cell-based, pAKT S473 readout (mTORC2 activity); conditions: Homo sapiens, PC-3, PC3 cells, compound treatment ninety minutes at 37° C.
Summary of the method: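 After blocking, cells were stained overnight at 4 °C with anti-pAKT S473 antibody, then a fluorescent secondary; inhibition was read as reduced fluorescence intensity.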

[2] = tested on: phosphorylated 4E-BP1 Thr37/46 (p4E-BP1 Thr37/46), mTORC1 activity, PC3 cells; test: mTOR target engagement assay, immunofluorescent cell-based, p4E-BP1 Thr37/46 readout (mTORC1 activity); conditions: Homo sapiens, PC-3, PC3 cells, compound treatment ninety minutes at 37° C.; read-out: p4E-BP1 Thr37/46 IC50
Summary of the method: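 Cell-based immunofluorescence in PC3 cells: serially diluted compounds (0.25% DMSO, 5% FBS) applied for ninety minutes at 37° C before fixation and overnight 4° C staining of p4E-BP1 Thr37/46. Untreated DMSO wells set maximal phosphorylation; IC50 obtained by logistic fitting.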

SMILES | pIC50 [1] | pIC50 [2]
CNC(=O)N1[C@@H]2CC[C@H]1C[C@H](c1nc3c(-c4ccc(-c5ccccc5)nc4)cnn3c(N)c1C1CC1)C2 [Compound 4.4, (1R,3a,5S)-3-(7-amino-6-cyclopropyl-3-(6-phenylpyridin-3-yl)pyrazolo[1,5-a]pyrimidin-5-yl)-N-methyl-8-azabicyclo[3.2.1]octane-8-carboxamide] | 7.00 to 9.00 | 6.00 to 7.00
CCNC(=O)N1[C@@H]2CC[C@H]1C[C@H](c1nc3c(-c4ccc(-c5ccccc5)nc4)cnn3c(N)c1C1CC1)C2 [Compound 4.5, (1R,3s,5S)-3-(7-amino-6-cyclopropyl-3-(6-phenylpyridin-3-yl)pyrazolo[1,5-a]pyrimidin-5-yl)-N-ethyl-8-azabicyclo[3.2.1]octane-8-carboxamide] | 6.00 to 7.00 | 6.00 to 7.00
NC(=O)N1[C@@H]2CC[C@H]1C[C@H](c1nc3c(-c4ccc(-c5ccccc5)nc4)cnn3c(N)c1C1CC1)C2 [Compound 4.6, (1R,3s,5S)-3-(7-amino-6-cyclopropyl-3-(6-phenylpyridin-3-yl)pyrazolo[1,5a]pyrimidin-5-yl)-8-azabicyclo[3.2.1]octane-8-carboxamide] | 7.00 to 9.00 | 7.00 to 9.00
COCCNC(=O)N1[C@@H]2CC[C@H]1C[C@H](c1nc3c(-c4ccc(-c5ccccc5)nc4)cnn3c(N)c1C1CC1)C2 [Compound 4.7, (1R,3s,5S)-3-(7-amino-6-cyclopropyl-3-(6-phenylpyridin-3-yl)pyrazolo[1,5-a]pyrimidin-5-yl)-N-(2-methoxyethyl)-8-azabicyclo[3.2.1]octane-8-carboxamide] | 6.00 to 7.00 | 6.00 to 7.00
Nc1c(C2CC2)c([C@@H]2C[C@H]3CC[C@@H](C2)N3C(=O)NCCO)nc2c(-c3ccc(-c4ccccc4)nc3)cnn12 [Compound 4.8, (1R,3s,5S)-3-(7-amino-6-cyclopropyl-3-(6-phenylpyridin-3-yl)pyrazolo[1,5-a]pyrimidin-5-yl)-N-(2-hydroxyethyl)-8-azabicyclo[3.2.1]octane-8-carboxamide] | 7.00 to 9.00 | 6.00 to 7.00
COc1ccc(-c2ccc(-c3cnn4c(N)c(C5CC5)c([C@@H]5C[C@H]6CC[C@@H](C5)N6C(=O)c5nnc[nH]5)nc34)cn2)cc1F [Compound 4.9, ((1R,3s,5S)-3-(7-amino-6-cyclopropyl-3-(6-(3-fluoro-4-methoxyphenyl)pyridin-3-yl)pyrazolo[1,5-a]pyrimidin-5-yl)-8-azabicyclo[3.2.1]octan-8-yl)(4H-1,2,4-triazol-3-yl)methanone] | 7.00 to 9.00 | 6.00 to 7.00
COc1ccc(-c2ccc(-c3cnn4c(N)c(C5CC5)c([C@@H]5C[C@H]6CC[C@@H](C5)N6C(=O)c5nnc[nH]5)nc34)cn2)c(F)c1F [Compound 4.10, ((1R,3a,5S)-3-(7-amino-6-cyclopropyl-3-(6-(2,3-difluoro-4-methoxyphenyl)pyridin-3-yl)pyrazolo[1,5-a]pyrimidin-5-yl)-8-azabicyclo[3.2.1]octan-8-yl)(4H-1,2,4-triazol-3-yl)methanone] | 7.00 to 9.00 | 7.00 to 9.00
COc1cc(F)c(-c2ccc(-c3cnn4c(N)c(C5CC5)c([C@@H]5C[C@H]6CC[C@@H](C5)N6C(=O)c5nnc[nH]5)nc34)cn2)cc1F [Compound 4.12, ((1R,3a,5S)-3-(7-amino-6-cyclopropyl-3-(6-(2,5-difluoro-4-methoxyphenyl)pyridin-3-yl)pyrazolo[1,5-a]pyrimidin-5-yl)-8-azabicyclo[3.2.1]octan-8-yl)(4H-1,2,4-triazol-3-yl)methanone] | 7.00 to 9.00 | 7.00 to 9.00
CCOc1ccc(-c2ccc(-c3cnn4c(N)c(C5CC5)c([C@@H]5C[C@H]6CC[C@@H](C5)N6C(=O)c5nnc[nH]5)nc34)cn2)cc1 [Compound 4.13, ((1R,3s,5S)-3-(7-amino-6-cyclopropyl-3-(6-(4-ethoxyphenyl)pyridin-3-yl)pyrazolo[1,5-a]pyrimidin-5-yl)-8-azabicyclo[3.2.1]octan-8-yl)(4H-1,2,4-triazol-3-yl)methanone] | 6.00 to 7.00 | 6.00 to 7.00
COCCOc1ccc(-c2ccc(-c3cnn4c(N)c(C5CC5)c([C@@H]5C[C@H]6CC[C@@H](C5)N6C(=O)c5nnc[nH]5)nc34)cn2)cc1 [Compound 4.14, ((1R,3s,5S)-3-(7-amino-6-cyclopropyl-3-(6-(4-(2-methoxyethoxy)phenyl)pyridin-3-yl)pyrazolo[1,5-a]pyrimidin-5-yl)-8-azabicyclo[3.2.1]octan-8-yl)(4H-1,2,4-triazol-3-yl)methanone] | 6.00 to 7.00 | 6.00 to 7.00
Nc1c(C2CC2)c([C@@H]2C[C@H]3CC[C@@H](C2)N3C(=O)c2nnc[nH]2)nc2c(-c3ccc(-c4ccc(OC(F)F)cc4)nc3)cnn12 [Compound 4.15, ((1R,3s,5S)-3-(7-amino-6-cyclopropyl-3-(6-(4-(difluoromethoxy)phenyl)pyridin-3-yl)pyrazolo[1,5-a]pyrimidin-5-yl)-8-azabicyclo[3.2.1]octan-8-yl)(4H-1,2,4-triazol-3-yl)methanone] | 6.00 to 7.00 | 6.00 to 7.00
Cn1ccc(-c2ccc(-c3cnn4c(N)c(C5CC5)c([C@@H]5C[C@H]6CC[C@@H](C5)N6C(=O)c5nnc[nH]5)nc34)cn2)n1 [Compound 4.17, ((1R,3s,5S)-3-(7-amino-6-cyclopropyl-3-(6-(1-methyl-1H-pyrazol-3-yl)pyridin-3-yl)pyrazolo[1,5-a]pyrimidin-5-yl)-8-azabicyclo[3.2.1]octan-8-yl)(4H-1,2,4-triazol-3-yl)methanone] | 7.00 to 9.00 | 7.00 to 9.00
Cn1ccc(-c2ccc(-c3cnn4c(N)c(C5CC5)c([C@@H]5C[C@H]6CC[C@@H](C5)N6C(=O)CO)nc34)cn2)n1 [Compound 4.18, 1-((1R,3s,5S)-3-(7-amino-6-cyclopropyl-3-(6-(1-methyl-1H-pyrazol-3-yl)pyridin-3-yl)pyrazolo[1,5-a]pyrimidin-5-yl)-8-azabicyclo[3.2.1]octan-8-yl)-2-hydroxyethanone] | 7.00 to 9.00 | 7.00 to 9.00
Cc1[nH]nc(-c2ccc(-c3cnn4c(N)c(C5CC5)c([C@@H]5C[C@H]6CC[C@@H](C5)N6C(=O)c5nnc[nH]5)nc34)cn2)c1F [Compound 4.19, ((1R,3s,5S)-3-(7-amino-6-cyclopropyl-3-(6-(4-fluoro-5-methyl-1H-pyrazol-3-yl)pyridin-3-yl)pyrazolo[1,5-a]pyrimidin-5-yl)-8-azabicyclo[3.2.1]octan-8-yl)(4H-1,2,4-triazol-3-yl)methanone] | 6.00 to 7.00 | 6.00 to 7.00
Cc1[nH]nc(-c2ccc(-c3cnn4c(N)c(C5CC5)c([C@@H]5C[C@H]6CC[C@@H](C5)N6C(=O)CO)nc34)cn2)c1F [Compound 4.20, 1-((1R,3s,5S)-3-(7-amino-6-cyclopropyl-3-(6-(4-fluoro-5-methyl-1H-pyrazol-3-yl)pyridin-3-yl)pyrazolo[1,5-a]pyrimidin-5-yl)-8-azabicyclo[3.2.1]octan-8-yl)-2-hydroxyethanone] | 6.00 to 7.00 | 6.00 to 7.00
Nc1c(C2CC2)c([C@@H]2C[C@H]3CC[C@@H](C2)N3C(=O)c2nnc[nH]2)nc2c(-c3ccc(-c4cccc(F)c4)nc3)cnn12 [Compound 4.21, ((1R,3s,5S)-3-(7-amino-6-cyclopropyl-3-(6-(3-fluorophenyl)pyridin-3-yl)pyrazolo[1,5-a]pyrimidin-5-yl)-8-azabicyclo[3.2.1]octan-8-yl)(4H-1,2,4-triazol-3-yl)methanone] | 7.00 to 9.00 | 7.00 to 9.00
